Experimental data taken from US7271158B2, “Treatment of rumen acidosis with α-amylase inhibitors” (Pfizer Inc., priority 2000, dated 2007).

Columns and labels:
E. faecalis = assay: Minimum inhibitory concentrations in aerobes (agar dilution)
Salm. enteritidis = assay: as above
[1] = test system: acute acidosis after carbohydrate challenge in cannulated cattle; assay: Acute acidosis model (carbohydrate challenge); type: in vivo, Holstein dried off cows and heifers
From the text: Acute Acidosis Model: Assessment of Acarbose [table] Procedures: Ten Holstein dried off cows and heifers (initial weight 740±27 (SE) kg, range=606–870 kg) were group-housed during the pre-treatment period and individually housed during the experimental period. Animals were moved to a head-gate during sample collection, treatment and first challenge. Subsequently, they were sampled and dosed in their individual pens. Animals were offered approximately 5 kg alfalfa hay, 16 kg silage, 6 kg concentrate and 0.5 kg straw daily in a total mixed ration offered in two feedings (60:40 concentrate:roughage diet ). They were bedded on straw only during the pre-treatment period. Water was provided ad libitum. Animals were adapted to the lactating ration for at least 10 days before treatments were administered. From a group of 6 dry cows and 5 non-lactating heifers, ten were selected based on previous exposure to challenge and general health. Animals were paired by body weight and were randomly assigned to control and acarbose treatment groups within pair, ensuring similar distribution of heifers and cows. On days 0–6 of treatment, animals received 1.07 mg acarbose/kg dissolved in ˜200 mL water through the rumen cannula just before AM (07:30) and PM (16:00) feedings. Treatment 1 animals received an equivalent amount of water only. On days 7 and 8, each animal was administered a challenge through the cannula. When pH reached ˜4.5 and there was evidence of L-lactate production, acute acidosis was considered to be induced. When an animal experienced acute acidosis by these criteria, rumen contents were removed and the rumen inoculated with rumen contents from a donor animal. Animals were weighed on days—1 and 5 for calculation of acarbose dosing and challenge amounts. To measure rumen fluid pH animals were fitted with a harness to hold an automatic pH data recording system. The rumen pH was recorded every 10 min during the days of challenge until an animal experienced acute acidosis. Rumen fluid samples were taken (˜50 mL) from the rumen cannula through a filtered sampling tube. […] The pH was measured immediately. […] In some cases the sample was filtered through gauze before pH measurement and acid treatment. This mixture was centrifuged for 10 min at 12000 g. One aliquot of the supernatant was removed for immediate lactate analysis, one frozen for subsequent lactate analysis using Sigma kit 826. A third aliquot was transferred to an auto-sampler vial for subsequent VFA analysis. An initial determination of L-lactate was made during the study to establish acidotic status using Sigma kit 735. Subsequently D and L-lactate were re-measured for statistical analysis as described below. VFA's were measured on a Hewlett Packard 6890 series gas chromatograph fitted with an auto-sampler and flame ionisation detector. The acids were resolved on a SGE Ltd. 25 metre BP21 column (0.33 mm O.D., 0.22 mm I.D. 0.25 um film thickness). Nitrogen was used as the carrier gas with a flow rate of 1.9 ml/min. The oven temperature was 165° C., and injection ports and detectors were held at 250° C. Concentrations were calculated by using crotonic acid as an internal standard, and the system was calibrated using a standard solution containing acetic, propionic, butyric, iso-valeric and n-valeric acids.

[2] = test system: bacterial glucosidase activity from bovine rumen fluid cell suspension; assay: Rumen fluid glucosidase assay; type: biochemical, bovine rumen bacteria; conditions: rumen fluid glucosidase screen, maltose substrate
Method: Rumen Fluid Glucosidase Assay Protocol This assay is used to determine IC50 values for inhibitors of bacterial glucosidase activity from bovine rumen fluid cell suspension (RFCS) using a colorimetric assay. The assay measures conversion of maltose into glucose. Rumen fluid cells are incubated with maltose in the presence of inhibitors, and the amount of glucose produced is assessed using a red colourimetric endpoint. The higher the level of inhibition the lower the glucose produced and the less red colour produced. The plates are read at 450 nm. Main reaction: • Maltose+glucosidase→glucose Glucose assay • Glucose+ATP→[…] and ADP (Hexokinase and Mg^2+) • […] and NADP→6-phosphogluconate (6-PG) and NADPH • NADPH+phenazine methosulfate ([…] (iodonitrotetrazolium chloride)→[…] is deep red coloured. […] The rumen fluid was collected into pre-warmed vacuum flasks. It was then filtered through a double layer of absorbent gauze (Absorbent gauze BP, GAUZ 4 from Robert Bailey plc, Stockport) to remove hay and feed particles. The liquid was centrifuged at a relative centrifugal force of 650 for 15 minutes to remove food particles and protozoa. The supernatant was decanted into fresh tubes and centrifuged at a relative centrifugal force of 23,300 for 60 minutes. The supernatant and the loose top layer of the pellet were discarded. The pellet was resuspended in PBS at 1:8 of original volume i.e. 50 ml of PBS for the pellet from 400 ml of rumen fluid, and frozen at -20° C. When required for use the cells were thawed by standing the tube in cold water, and then diluted to […] of cells/well (45 μl/ml). Test compounds or controls were dispensed into the 96-well assay plate at 2 μl/well, followed by 50 μl per well of 10 mM maltose and 50 μl/well of rumen fluid cell suspension. The plate was incubated at 37° C. for 1 hour. Sigma glucose detection kit […] was reconstituted by addition of 17 ml of Millipore water and 4 ml of colour reagent to each vial. 100 μl of this solution was added per well and the plate returned to the 37° C. incubator for 45 minutes. The plate was then read at 450 nm. Active compounds cause a reduction in the optical density readings when compared to the no-inhibitor control wells.

For `CC1OC(OC2C(CO)OC(OC3C(CO)OC(O)C(O)C3O)C(O)C2O)C(O)C(O)C1NC1C=C(CO)C(O)C(O)C1O` (stereo not drawn) [Acarbose, acarbose], the MIC (E. faecalis; E. faecalis 1.1.16) was >128 µg/mL, the MIC (E. faecalis; E. faecalis 1.1.4) was >128 µg/mL and the MIC (E. faecalis; E. faecalis 1.10.4) was >128 µg/mL. For the same compound, the MIC (E. faecalis; E. faecalis 1.3.13) was >128 µg/mL, the MIC (E. faecalis; E. faecalis 1.4.12) was >128 µg/mL and the MIC (E. faecalis; E. faecalis 1.6.6) was >128 µg/mL. The MIC (E. faecalis; E. faecalis 1.9.5) was >128 µg/mL, the MIC (E. faecalis; E. faecalis 28.5.7) was >128 µg/mL and the MIC (E. faecalis; E. faecalis 28.6.9) was >128 µg/mL. For the same compound, the MIC (E. faecalis; Enterococcus faecalis) was > 128 µg/mL, the MIC (Salm. enteritidis; Salm. enteritidis B1218) was >128 µg/mL and the MIC (Salm. enteritidis; Salm. enteritidis B1227) was >128 µg/mL. For the same compound, the MIC (Salm. enteritidis; Salm. enteritidis B1231) was >128 µg/mL, the MIC (Salm. enteritidis; Salm. enteritidis B1232) was >128 µg/mL and the MIC (Salm. enteritidis; Salm. enteritidis B1233) was >128 µg/mL. For the same compound, the MIC (Salm. enteritidis; Salm. enteritidis B1235) was >128 µg/mL, the MIC (Salm. enteritidis; Salm. enteritidis B1240) was >128 µg/mL and the MIC (Salm. enteritidis; Salmonella enterica, ENTERITIDIS) was > 128 µg/mL. The “Group mean D-Lactate” value ([1]; 0 hours post second challenge) was 0.67 mM, the “Group mean L-Lactate” value ([1]; 0 hours post second challenge) was 0.35 mM and the “Group mean Total-Lactate” value ([1]; 0 hours post second challenge) was 1.02 mM. For the same compound, the “acute acidosis following carbohydrate challenge” value ([1]; 1.07 mg/kg BW BID 7 days pre-challenge, via cannula) was “prevented acute acidosis”, the “Group mean D-Lactate” value ([1]; 3 hours post second challenge) was 3.63 mM and the “Group mean L-Lactate” value ([1]; 3 hours post second challenge) was 1.28 mM. For the same compound, the “Group mean Total-Lactate” value ([1]; 3 hours post second challenge) was 4.91 mM, the “Group mean D-Lactate” value ([1]; 5 hours post second challenge) was 10.91 mM and the “Group mean L-Lactate” value ([1]; 5 hours post second challenge) was 3.08 mM. For the same compound, the “Group mean Total-Lactate” value ([1]; 5 hours post second challenge) was 13.99 mM, the “Group mean D-Lactate” value ([1]; 7 hours post second challenge) was 18.00 mM and the “Group mean L-Lactate” value ([1]; 7 hours post second challenge) was 4.93 mM. The “Group mean Total-Lactate” value ([1]; 7 hours post second challenge) was 22.93 mM, the “rumen pH” value ([1]; after second carbohydrate challenge, all treated cattle, 1.07 mg/kg BW BID 7 days pre-challenge, via cannula) was “above 5.0” and the “lactate level in rumen fluid” value ([1]; after second challenge, all acarbose-treated animals (four of five controls >50 mM)) was “remained at zero”. The “L-lactate production in response to the load” value ([1]; twice a day treatment) was “blocked”, the “pH responses to a high carbohydrate load” value ([1]; twice a day treatment) was “reduced” and the IC50 [2] was 1080 nM.
